Reference: ChEMBL document CHEMBL1201862, “PubChem BioAssay data set” (2004)
Activity calls are given as the source filed them.

Key:
Protein RecA = target: T1, Protein RecA (Mycobacterium tuberculosis, UniProt P9WHJ3); assay: Fluorescence Cell-Free Homogeneous Dose Retest to Identify Inhibitors of RecA-Intein Splicing Activity. [Related pubchem assays (depositor defined):AID2097, AID2223, AID489010, AID492950]; assay type: functional
T1 sequence (P9WHJ3 whole entry): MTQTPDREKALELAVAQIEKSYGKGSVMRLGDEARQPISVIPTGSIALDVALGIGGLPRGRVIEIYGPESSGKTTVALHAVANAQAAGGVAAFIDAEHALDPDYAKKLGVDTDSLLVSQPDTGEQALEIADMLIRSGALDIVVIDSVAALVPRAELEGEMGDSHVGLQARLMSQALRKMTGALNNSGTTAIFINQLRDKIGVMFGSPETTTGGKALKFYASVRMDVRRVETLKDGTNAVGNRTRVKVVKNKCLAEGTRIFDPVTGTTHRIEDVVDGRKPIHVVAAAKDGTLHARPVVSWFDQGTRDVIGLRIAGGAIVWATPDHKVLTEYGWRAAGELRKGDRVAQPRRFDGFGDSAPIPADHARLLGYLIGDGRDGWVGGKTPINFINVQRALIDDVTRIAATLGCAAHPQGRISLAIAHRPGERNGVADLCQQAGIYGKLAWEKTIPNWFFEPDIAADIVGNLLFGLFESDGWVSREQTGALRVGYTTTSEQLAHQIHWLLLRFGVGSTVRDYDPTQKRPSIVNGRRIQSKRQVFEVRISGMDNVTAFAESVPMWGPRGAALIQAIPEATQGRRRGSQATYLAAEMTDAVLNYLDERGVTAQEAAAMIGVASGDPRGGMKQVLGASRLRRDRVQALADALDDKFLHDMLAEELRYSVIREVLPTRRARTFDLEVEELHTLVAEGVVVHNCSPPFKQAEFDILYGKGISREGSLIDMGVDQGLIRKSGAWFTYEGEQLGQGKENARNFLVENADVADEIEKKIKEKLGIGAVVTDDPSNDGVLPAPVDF

SUMO-activating enzyme = SUMO-activating enzyme (Homo sapiens, UniProt Q9UBT2); assay: inhibitors of in vitro SUMOylation cascade, primary screen, biochemical, HTRF, uHTS (AID 2006); assay type: protein-complex assay
Chain of SUMO-activating enzyme (Q9UBE0 whole entry): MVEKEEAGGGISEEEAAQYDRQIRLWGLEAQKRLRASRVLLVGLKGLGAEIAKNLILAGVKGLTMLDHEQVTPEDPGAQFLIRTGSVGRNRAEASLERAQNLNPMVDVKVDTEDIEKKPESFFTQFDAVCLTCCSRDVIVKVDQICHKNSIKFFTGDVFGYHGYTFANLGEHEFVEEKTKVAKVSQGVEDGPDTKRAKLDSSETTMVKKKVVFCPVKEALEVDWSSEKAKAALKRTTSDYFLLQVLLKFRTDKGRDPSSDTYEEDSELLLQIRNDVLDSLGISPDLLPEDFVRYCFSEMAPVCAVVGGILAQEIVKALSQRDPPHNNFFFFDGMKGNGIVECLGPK
Chain of SUMO-activating enzyme (Q9UBT2 whole entry): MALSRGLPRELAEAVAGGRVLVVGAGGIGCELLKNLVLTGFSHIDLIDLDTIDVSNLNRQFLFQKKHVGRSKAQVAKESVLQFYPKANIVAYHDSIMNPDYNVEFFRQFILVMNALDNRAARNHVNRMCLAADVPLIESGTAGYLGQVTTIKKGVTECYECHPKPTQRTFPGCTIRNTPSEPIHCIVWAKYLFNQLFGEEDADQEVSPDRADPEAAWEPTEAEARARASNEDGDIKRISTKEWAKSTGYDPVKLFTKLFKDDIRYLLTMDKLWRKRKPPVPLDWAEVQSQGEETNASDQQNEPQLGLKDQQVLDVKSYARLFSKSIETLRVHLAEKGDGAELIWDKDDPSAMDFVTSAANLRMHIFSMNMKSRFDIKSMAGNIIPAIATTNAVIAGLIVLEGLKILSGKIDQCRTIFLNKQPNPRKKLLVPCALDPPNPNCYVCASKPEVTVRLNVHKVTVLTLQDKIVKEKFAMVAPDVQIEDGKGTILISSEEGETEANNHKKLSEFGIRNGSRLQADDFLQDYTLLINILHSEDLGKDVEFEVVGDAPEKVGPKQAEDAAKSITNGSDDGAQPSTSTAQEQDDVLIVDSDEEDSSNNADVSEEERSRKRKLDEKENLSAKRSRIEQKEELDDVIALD

Misshapen-like kinase 1 = Misshapen-like kinase 1 (Homo sapiens, UniProt Q8N4C8); assay type: functional;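 further: kinome panel screen with MINK as the panel member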
[1] = target: Platelet-derived growth factor receptor alpha (Homo sapiens, UniProt P16234); assay: Navigating the Kinome. Panel member name: PDGFRA; assay type: functional
Chain of Platelet-derived growth factor receptor alpha (P16234 whole entry): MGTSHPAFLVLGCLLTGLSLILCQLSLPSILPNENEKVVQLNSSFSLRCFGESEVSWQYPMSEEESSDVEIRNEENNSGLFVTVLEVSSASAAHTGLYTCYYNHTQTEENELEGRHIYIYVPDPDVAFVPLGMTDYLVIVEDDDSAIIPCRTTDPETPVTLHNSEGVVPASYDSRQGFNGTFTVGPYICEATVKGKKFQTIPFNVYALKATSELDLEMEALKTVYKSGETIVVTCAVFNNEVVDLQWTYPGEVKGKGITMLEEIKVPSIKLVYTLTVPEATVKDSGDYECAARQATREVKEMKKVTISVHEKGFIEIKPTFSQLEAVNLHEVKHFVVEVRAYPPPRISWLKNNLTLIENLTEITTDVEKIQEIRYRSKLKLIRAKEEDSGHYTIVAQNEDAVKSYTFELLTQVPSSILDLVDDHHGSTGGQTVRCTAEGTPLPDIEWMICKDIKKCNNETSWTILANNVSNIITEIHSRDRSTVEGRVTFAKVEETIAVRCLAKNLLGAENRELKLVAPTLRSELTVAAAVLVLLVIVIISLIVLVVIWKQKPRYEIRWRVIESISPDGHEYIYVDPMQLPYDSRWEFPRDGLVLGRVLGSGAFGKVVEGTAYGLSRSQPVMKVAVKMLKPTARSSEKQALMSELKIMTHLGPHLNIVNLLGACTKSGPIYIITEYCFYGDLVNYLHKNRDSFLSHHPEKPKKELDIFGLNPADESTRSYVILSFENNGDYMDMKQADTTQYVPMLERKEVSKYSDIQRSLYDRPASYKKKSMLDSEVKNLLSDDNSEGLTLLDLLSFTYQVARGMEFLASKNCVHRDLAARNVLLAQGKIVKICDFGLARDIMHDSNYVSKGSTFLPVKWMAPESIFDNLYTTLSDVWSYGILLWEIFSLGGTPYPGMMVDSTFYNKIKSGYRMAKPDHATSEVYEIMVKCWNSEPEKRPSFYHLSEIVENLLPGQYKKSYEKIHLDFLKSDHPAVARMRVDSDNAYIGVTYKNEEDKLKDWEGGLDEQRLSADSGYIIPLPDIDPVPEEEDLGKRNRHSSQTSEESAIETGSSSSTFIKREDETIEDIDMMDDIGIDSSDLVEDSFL

[2] = target: Calcium/calmodulin-dependent protein kinase type II subunit delta (Homo sapiens, UniProt Q13557); assay type: functional
Chain of Calcium/calmodulin-dependent protein kinase type II subunit delta (Q13557 whole entry): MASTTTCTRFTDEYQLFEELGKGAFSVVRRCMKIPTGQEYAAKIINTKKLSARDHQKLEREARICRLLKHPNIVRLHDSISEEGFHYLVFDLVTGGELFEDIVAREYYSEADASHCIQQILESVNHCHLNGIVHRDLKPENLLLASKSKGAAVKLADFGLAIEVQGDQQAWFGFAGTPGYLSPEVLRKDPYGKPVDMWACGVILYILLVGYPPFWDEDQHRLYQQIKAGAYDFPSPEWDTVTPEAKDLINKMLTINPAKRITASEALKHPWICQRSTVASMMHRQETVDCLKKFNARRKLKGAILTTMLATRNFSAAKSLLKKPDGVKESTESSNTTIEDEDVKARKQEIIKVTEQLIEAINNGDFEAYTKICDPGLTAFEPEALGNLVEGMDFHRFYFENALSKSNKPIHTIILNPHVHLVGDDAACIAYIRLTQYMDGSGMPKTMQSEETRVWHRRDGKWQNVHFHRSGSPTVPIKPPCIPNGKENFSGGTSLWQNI

[3] = target: Maternal embryonic leucine zipper kinase (Homo sapiens, UniProt Q14680); assay type: functional
Chain of Maternal embryonic leucine zipper kinase (Q14680 whole entry): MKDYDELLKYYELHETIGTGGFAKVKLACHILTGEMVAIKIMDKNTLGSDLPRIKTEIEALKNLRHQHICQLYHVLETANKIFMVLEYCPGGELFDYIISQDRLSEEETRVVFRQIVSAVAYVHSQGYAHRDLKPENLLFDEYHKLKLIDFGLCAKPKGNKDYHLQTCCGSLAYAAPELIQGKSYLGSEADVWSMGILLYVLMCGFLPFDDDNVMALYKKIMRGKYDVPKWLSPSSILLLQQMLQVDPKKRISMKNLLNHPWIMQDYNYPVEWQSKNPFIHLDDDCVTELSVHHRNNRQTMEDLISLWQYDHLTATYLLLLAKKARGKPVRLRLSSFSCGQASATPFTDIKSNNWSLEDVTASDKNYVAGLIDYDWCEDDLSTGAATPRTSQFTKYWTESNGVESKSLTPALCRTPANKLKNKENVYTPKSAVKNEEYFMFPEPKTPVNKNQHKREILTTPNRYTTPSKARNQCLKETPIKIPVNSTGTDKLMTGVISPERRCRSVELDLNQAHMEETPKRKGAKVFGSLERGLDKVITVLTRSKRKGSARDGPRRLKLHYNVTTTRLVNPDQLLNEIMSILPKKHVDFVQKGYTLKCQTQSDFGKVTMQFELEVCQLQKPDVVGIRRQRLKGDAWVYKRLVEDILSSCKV

Bcl-2-related protein A1 = target: T2, Bcl-2-related protein A1 (Mus musculus, UniProt Q07440); assay type: functional;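 further: confirmatory dose–response counterscreen on Bfl-1, used to check hits from a UBC13 polyubiquitin inhibitor campaign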
T2 sequence (Q07440 whole entry): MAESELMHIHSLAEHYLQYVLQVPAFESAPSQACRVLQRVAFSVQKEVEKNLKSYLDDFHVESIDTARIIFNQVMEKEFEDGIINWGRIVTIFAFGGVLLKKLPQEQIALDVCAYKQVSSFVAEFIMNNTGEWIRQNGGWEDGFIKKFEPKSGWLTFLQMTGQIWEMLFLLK

[4] = cytotoxicity toward NIH3T3 fibroblasts, dose response, counter-screen, cell-based, ATP luminescence, mouse fibroblasts (AID 2010); assay type: functional;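 further: cells exposed to compound for about 90 hours before reading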
[5] = inhibitors of SNCA 5'UTR-driven translation, confirmation, luminescence, H4 neuroglioblastoma cells, dose confirmation (AID 2454); assay type: functional, cell-based;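 further: H4 neuroglioblastoma cells carrying an alpha-synuclein 5'UTR luciferase reporter; potency for inhibition of the luciferase signal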
[6] = target: T3, Sentrin-specific protease 8 (Homo sapiens, UniProt Q96LD8); assay type: functional;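 further: kinetic enzyme assay of SENP8 cleaving a Nedd8 protein substrate, dose-response confirmation of screening hits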
T3 sequence (Q96LD8 whole entry): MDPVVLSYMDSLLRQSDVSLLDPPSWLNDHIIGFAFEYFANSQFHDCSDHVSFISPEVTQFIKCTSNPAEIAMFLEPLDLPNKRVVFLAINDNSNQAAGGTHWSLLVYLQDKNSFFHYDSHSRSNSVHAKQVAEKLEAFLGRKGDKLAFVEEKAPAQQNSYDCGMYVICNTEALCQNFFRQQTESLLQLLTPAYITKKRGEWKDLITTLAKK

[7] = target: 26S proteasome non-ATPase regulatory subunit 14 (Homo sapiens, UniProt O00487); assay: inhibition of proteasome subunit RPN11 – biochemical, fluorescence polarization, uHTS hits, confirmation (AID 602368); assay type: functional
Chain of 26S proteasome non-ATPase regulatory subunit 14 (O00487 whole entry): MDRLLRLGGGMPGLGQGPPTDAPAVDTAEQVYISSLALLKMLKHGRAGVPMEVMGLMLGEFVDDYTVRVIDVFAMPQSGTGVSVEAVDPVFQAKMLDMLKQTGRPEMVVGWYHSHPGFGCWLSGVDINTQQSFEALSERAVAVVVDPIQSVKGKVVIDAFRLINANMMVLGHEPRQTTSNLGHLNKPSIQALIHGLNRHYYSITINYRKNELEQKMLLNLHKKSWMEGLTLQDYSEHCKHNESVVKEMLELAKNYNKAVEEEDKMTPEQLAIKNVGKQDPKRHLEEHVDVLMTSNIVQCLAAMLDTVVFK

BJ = assay: cytotoxicity toward BJ-TERT-LT-ST fibroblasts, dose response, cell-based, RAS-independent, luminescence (AID 1935); assay type: functional; settings: Homo sapiens;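 further: BJ fibroblasts immortalized with TERT plus LT and ST oncogenes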
[8] = target: T4, Alkaline phosphatase, tissue-nonspecific isozyme (Homo sapiens, UniProt P05186); assay: TNAP enzyme activators, dose response, selectivity assay for human IAP activator project, biochemical, TNAP isozyme, human IAP uHTS hits (AID 488886); assay type: functional;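 further: potency of compounds raising TNAP activity as a selectivity check on IAP activators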
T4 sequence (P05186 whole entry): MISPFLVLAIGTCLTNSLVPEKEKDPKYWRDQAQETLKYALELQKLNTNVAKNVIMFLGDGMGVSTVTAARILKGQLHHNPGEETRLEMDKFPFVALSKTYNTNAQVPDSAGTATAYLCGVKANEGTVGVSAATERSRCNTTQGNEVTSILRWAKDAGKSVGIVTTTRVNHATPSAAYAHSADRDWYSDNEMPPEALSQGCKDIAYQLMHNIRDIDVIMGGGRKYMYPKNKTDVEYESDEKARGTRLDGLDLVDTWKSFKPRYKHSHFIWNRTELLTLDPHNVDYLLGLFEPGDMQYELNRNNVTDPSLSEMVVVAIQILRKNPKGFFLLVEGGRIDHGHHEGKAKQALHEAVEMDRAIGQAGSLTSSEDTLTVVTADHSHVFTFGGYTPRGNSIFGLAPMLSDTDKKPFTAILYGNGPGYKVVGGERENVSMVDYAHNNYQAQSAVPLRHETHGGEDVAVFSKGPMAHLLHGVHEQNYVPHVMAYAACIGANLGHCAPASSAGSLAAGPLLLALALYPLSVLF

[9] = target: Intestinal-type alkaline phosphatase (Mus musculus, UniProt P24822); assay: PubChem AID 488874; assay type: functional
Chain of Intestinal-type alkaline phosphatase (P24822 whole entry): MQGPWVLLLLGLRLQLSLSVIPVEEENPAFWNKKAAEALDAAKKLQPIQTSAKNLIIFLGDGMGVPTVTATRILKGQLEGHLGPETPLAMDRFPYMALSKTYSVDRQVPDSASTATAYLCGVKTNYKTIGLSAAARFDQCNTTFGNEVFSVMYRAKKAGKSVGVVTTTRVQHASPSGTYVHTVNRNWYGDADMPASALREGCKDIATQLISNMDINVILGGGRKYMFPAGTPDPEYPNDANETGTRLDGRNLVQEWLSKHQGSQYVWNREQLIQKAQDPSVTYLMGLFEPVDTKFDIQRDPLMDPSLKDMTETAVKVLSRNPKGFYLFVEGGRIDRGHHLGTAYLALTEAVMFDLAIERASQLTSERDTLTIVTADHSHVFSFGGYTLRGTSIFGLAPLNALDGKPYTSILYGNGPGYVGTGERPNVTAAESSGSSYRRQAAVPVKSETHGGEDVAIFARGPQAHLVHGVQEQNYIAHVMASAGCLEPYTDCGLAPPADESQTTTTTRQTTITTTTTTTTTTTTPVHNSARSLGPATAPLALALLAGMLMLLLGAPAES

O=C(Cc1ccccc1Cl)NC1(O)C(=O)c2ccccc2C1=O
EC50 (Protein RecA): 8.18 µM (active)
IC50 (SUMO-activating enzyme): 26 µM (active)

O=C(Nc1cc(-c2c[nH]c3ncccc23)cc(Cl)n1)c1ccccc1
Ki (Misshapen-like kinase 1): > 2.51 µM (inactive)
Ki [1]: > 2.51 µM (inactive)
Ki [2]: > 3.16 µM (inactive)
Ki [3]: 0.0316 µM (active)

CNC[C@H](Cc1ccccc1)NC[C@@H](Cc1cccc2ccccc12)NCCc1ccc(C)cc1
IC50 (Bcl-2-related protein A1): > 20 µM (inactive)

CCN1C(=Cc2sc3ccccc3[n+]2C)C=Cc2cccc(C)c21
EC50 [4]: 1.86 µM (active)
EC50 [5]: > 12 µM (not active)

Nc1nnc2c(n1)CCCC2
IC50 [6]: 2.98 µM (active)

O=C(N/N=C/c1c(O)ccc2ccccc12)c1[nH]ncc1Br
IC50 [7]: 24 µM (active)
EC50 (BJ): 10.5 µM (active)
EC50 [8]: > 100 µM (inactive)
IC50 [9]: 36.5 µM (active)
